What was measured:
JFH-1 HCV [1] = assay type: cell-based, Hepatitis C virus
Experimental: Huh7.5 cells were infected with JFH-1 HCV and maintained at 4°C for 4 hours (h) to synchronize the cells before shifting the temperature to 37°C. Post temperature shift (PTS), infected cells were incubated for various lengths of times prior to the addition of peptides or known inhibitors of HCV at 2 h intervals. […] We deliberately selected the final time point of 72 h PTS to reflect the number of cells infected by a second round of infection. […] This would be reflected by the number of cells infected in the second round as measured at 72 h PTS.
In order to elucidate the time points in infection when the nuclear transport signals bearing peptides are functional, cells were synchronously infected and treated with the indicated peptides. Each time point (2 h intervals) represents a culture treated with the indicated reagent at the specified time post temperature shift (PTS) and initiation of HCV infection. […] (A) Known inhibitors of HCV production (Ezetimibe (30 µM), LMB (18 nM), BMS-986094 (10 nM) and DGAT 1 inhibitor (10 nM)) and control (Pen peptide 100 µM, DMSO 2%, no treatment, and no infection) were examined. […] Error bars represent ± standard deviation, n = 3.
For the time of addition experiments, cells were seeded at a density of 6.25×10^4 cells/well in a 96-well plate and infected with 0.1 genomic equivalents of serially passaged JFH-1 virus on ice: cells then were incubated at 4°C for 4 h.
Briefly, Huh7.5 cells were infected as described above and the test compounds were added to different wells at different time points before the temperature shift (-4 h and -2 h) and every 2 h after the temperature shift (0, 2, 4,…, 48 h). […] The infection levels were calculated by counting infected and total cells numbers in ten random fields for each condition. The non-treated cell infection level was normalized to 100% and all other infections were calculated based on that normalization.

JFH-1 HCV [2] = details: literature value; cited from earlier work
Experimental: Ezetimibe is known to inhibit a late stage of HCV entry, and it lost its ability to inhibit HCV infection when added 4–10 h PTS, thus defining the last phase of entry (Fig. 6A). […] In our study, the inhibitory effect of LMB was lost 10–14 hours PTS (Fig. 6A). BMS-986094, an inhibitor of NS5B polymerase, lost its ability to inhibit HCV infection when added 10–24 h PTS, thus defining the period of viral RNA synthesis (Fig. 6A). The ...

XPO1 = molecular target: T1, XPO1 (Homo sapiens, UniProt O14980); assay: ELISA-based binding assay (Kd(app))
T1 construct: Expression and purification of full length XPO1 were perform according to methods described in a previous publication; His tag; made in house; host or cells: Escherichia coli BL21(DE3), pET21 vector
T1 sequence (O14980 whole entry): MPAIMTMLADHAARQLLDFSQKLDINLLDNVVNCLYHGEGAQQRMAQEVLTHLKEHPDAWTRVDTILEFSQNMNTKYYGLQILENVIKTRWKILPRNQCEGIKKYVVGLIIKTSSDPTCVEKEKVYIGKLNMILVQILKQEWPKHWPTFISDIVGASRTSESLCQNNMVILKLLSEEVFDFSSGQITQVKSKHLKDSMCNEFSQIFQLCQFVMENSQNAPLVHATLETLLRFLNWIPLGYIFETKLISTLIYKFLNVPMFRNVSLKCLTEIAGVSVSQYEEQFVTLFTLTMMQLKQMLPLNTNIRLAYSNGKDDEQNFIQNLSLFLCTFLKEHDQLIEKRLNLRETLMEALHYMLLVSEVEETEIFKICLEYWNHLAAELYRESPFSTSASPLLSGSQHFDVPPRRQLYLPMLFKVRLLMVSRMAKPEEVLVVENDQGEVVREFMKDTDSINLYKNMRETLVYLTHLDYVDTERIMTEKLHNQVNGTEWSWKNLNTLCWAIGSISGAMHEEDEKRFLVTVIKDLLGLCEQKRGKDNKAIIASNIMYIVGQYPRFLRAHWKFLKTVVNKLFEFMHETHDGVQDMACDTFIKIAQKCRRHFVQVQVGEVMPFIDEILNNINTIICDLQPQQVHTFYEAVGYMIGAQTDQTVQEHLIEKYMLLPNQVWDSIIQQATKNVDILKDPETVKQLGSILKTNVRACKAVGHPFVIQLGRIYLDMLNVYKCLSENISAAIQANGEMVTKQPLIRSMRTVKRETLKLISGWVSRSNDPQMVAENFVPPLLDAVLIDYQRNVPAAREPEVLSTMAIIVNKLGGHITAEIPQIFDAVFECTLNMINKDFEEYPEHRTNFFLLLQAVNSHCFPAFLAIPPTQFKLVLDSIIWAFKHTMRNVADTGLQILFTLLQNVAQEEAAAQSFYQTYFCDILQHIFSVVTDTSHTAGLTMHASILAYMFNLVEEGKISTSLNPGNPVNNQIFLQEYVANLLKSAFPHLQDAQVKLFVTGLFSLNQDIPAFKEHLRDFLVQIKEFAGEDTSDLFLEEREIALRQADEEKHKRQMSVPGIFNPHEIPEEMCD

[3] = tested on: interaction of core, NS3, or NS5A with IPO5; assay: Peptide competition of HCV protein-NTF interaction (ELISA in-vitro, Co-IP in cell culture); assay type: biochemical; details: ELISA with 100 µM peptide and Co-IP of V5 tagged HCV proteins; n = 3
Experimental: (§1) To examine the specificity of the interactions between HCV proteins and NTFs, we examined the ability of each putative NLS or NES peptide identified in Fig. 1 to disrupt the interaction between the HCV protein and the NTF, using an ELISA in-vitro and co-immunoprecipitation (Co-IP) in cell culture assays (Fig. 3, S3 and S4 Figure). The ELISA plates were coated with HCV proteins while NTFs and competitive peptides were added, and the fraction of bound NTF was measured using NTF specific antibodies. The Co-IP was conducted by expression of V5 tagged HCV proteins in the presence of competing peptides, followed by immunoprecipitation with V5 specific antibody and immunoblotting with specific NTF antibodies.
(§2) Figure 3 Analysis of HCV protein binding to NTFs in the presence of NLS and NES peptides. ELISA plates were coated with HCV proteins and the relative binding of the different NTFs was monitored by ELISA in the presence of 100 µM of the indicated peptide. For the Co-IP study, cells were transfected by plasmid encoding to V5 tagged HCV proteins and treated by the indicated peptides. After 48 h, cells were lysed and Co-IP using anti V5 antibody and blotted to enable detection of the different NTFs. Western blots were quantified using Multi Gauge v. 3.0. […] The y-axis represents the percentage of NTF bound to the HCV protein; the interaction without the peptide is set to 100%. Error bars represent ± standard deviation, n = 3. The significant difference between the untreated (no peptide) and peptide treated is indicated by: * p<0.05, ** p<0.01, *** p<0.001, **** p<0.0001.
(§3) Protein-peptide and protein-protein binding were estimated using an ELISA-based binding assay as described previously. Briefly, ELISA plates were coated with 200 µl of a 10 µg/ml of synthetic peptide or recombinant protein in a carbonate buffer (0.05 M Na2CO3/0.05 M NaHCO3, pH 9.6) overnight at 4°C. After incubation, the solution was removed, and the plates were washed three times with PBS. […] Each measurement was performed in duplicate.

[4] = tested on: core- and NS2-XPO1 interactions; assay: as above; assay type: biochemical; details: plates coated with HCV protein, 100 µM peptide, n = 3
Experimental: as §1, §2, §3

[5] = tested on: interaction of core, NS2, or NS3 with IPOA5; assay: as above; assay type: biochemical; details: ELISA with 100 µM peptide and Co-IP of V5 tagged HCV proteins; n = 3
Experimental: as §1, §2, §3

HEK293T cells = assay: Localization of nuclear transport signal-double GFP reporter in HEK293T cells; assay type: cell-based; parameters: key: +++ for strong; ++ for moderate; + for weak; − for no localization; details: double GFP cargo, 24 h post transfection, fluorescence quantified with ImageJ (S6, S7 Figures); NES/SEN on SV40 NLS double GFP
Excerpt: To determine whether NTF binding sites found in the HCV proteins were functional nuclear transport signals, we constructed reporter proteins each consisting of one of the HCV proteins NTF binding sites followed by two C-terminal, tandemly repeated GFP molecules. The double GFP moieties were required to keep the reporter from entering the nucleus, since a single GFP is small enough to diffuse freely through NPCs, [35]. As controls, constructs containing the reversed amino-acid residue sequence of the potential NLS (SLN) were also examined using the double GFP reporter assay (S5 Figure). These SLN reporters were predicted to not accumulate in the nucleoplasm. In addition, reporters to examine the functionality of the potential XPO1 binding domains were also constructed. These reporters consist of an SV40 NLS and a double GFP molecule followed by one of the various potential NESs at the C-terminus (S5 Figure). In the absence of a functional NES, this reporter will accumulate in the nucleus. However, a functional NES is predicted to export the reporter, leading to increased steady-state levels of the reporter in the cytoplasm.
Figure 4 Functionality of the putative nuclear transport signals in cells. Cells were transfected by the vectors encoding a nuclear transport reporter consisting of a tandemly repeated double GFP fused to the indicated C-terminal nuclear transport signal (panels A-N). At 24 h following transfection, cells were fixed and stained with Hoechst to visualize the nucleus. Cells were examined using a Zeiss inverted Axiovert 200 M microscope to assess the localization of the GFP (green) and its relationship to the nucleus (blue). A hashed yellow square demarcates the magnified area shown in the right-most image of each panel. Fluorescent intensity was quantified using ImageJ v. […] Analysis of the reverse sequences of each transport signal as well as the mutant SV40 NLS was also performed and the results are shown in S7 Figure.
Nuclear transport signals-double GFP constructs were transfected into HEK293T cells using lipofectamine 2000. At 24 h post transfection cells were fixed, stained, and visualized for localization of the GFP. For detailed information see S1 Methods.
Nuclear transport signal-double GFP constructs were transfected into HEK293T cells using lipofectamine 2000 reagent (Invitrogen, 11668019). At 24 h post transfection cells were fixed with 3.76% formaldehyde at room temperature (Sigma, F8775-500ML) for 8 min then permeabilized in 0.2% Triton X-100 (VWR, CA97062-208) for 2 min. Cells were washed three times with X1 PBS and were stained with Hoechst 1:5000 in X1 PBS for 5 min followed by three washes with X1 PBS. The cells were visualized using a Zeiss inverted Axiovert 200M microscope with a 20x/0.8 objective lens to examine localization of the GFP. At least ten random fields of cells were imaged for each combination. Channels were merged using ImageJ software (National Institutes of Health). Photoshop Elements 10 (Adobe) software was used to adjust brightness and contrast levels for individual images and to assemble images into figures.

IPOA5 = molecular target: T2, IPOA5 (Homo sapiens, UniProt P52294); assay: biochemical; assay type: binding; details: ELISA, immobilized peptide or HCV protein
T2 construct: Expression and purification of full length IPOA5, IPO5 were perform according to methods described previously; His tag; made in house; host or cells: Escherichia coli BL21(DE3), pET21 vector
T2 sequence (P52294 whole entry): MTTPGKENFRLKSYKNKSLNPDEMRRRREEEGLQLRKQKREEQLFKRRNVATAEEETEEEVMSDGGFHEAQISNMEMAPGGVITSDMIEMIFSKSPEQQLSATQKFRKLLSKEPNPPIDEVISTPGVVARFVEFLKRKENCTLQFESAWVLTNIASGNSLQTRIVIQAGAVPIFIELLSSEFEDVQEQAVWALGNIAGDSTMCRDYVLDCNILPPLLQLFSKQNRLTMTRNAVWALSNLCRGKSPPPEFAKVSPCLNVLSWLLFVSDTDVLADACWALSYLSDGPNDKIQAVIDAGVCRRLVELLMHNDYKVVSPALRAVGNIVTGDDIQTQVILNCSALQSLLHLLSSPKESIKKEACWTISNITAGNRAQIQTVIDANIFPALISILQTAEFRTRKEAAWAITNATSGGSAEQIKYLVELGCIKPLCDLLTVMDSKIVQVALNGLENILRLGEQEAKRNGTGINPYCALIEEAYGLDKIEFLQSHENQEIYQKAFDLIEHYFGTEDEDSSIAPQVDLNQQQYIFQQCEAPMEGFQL

Molecule: O=C1[C@H](CC[C@H](O)c2ccc(F)cc2)[C@@H](c2ccc(O)cc2)N1c1ccc(F)cc1 [Ezetimibe]
- time of addition at which the ability to inhibit HCV infection is lost (JFH-1 HCV [1]; Huh7.5, JFH-1, 4 h at 4°C then 37°C, added at 2 h intervals, % NS5A-positive cells at 72 h PTS, Ezetimibe 30 µM, LMB 18 nM, BMS-986094 10 nM, DGAT 1 inhibitor 10 nM, n = 3): 4–10 h PTS

Molecule: CCC(=C/[C@H](C)C/C=C/C(C)=C/[C@@H](C)C(=O)[C@@H](C)[C@H](O)[C@@H](C)C/C(C)=C/C(=O)O)/C=C/[C@@H]1OC(=O)C=C[C@@H]1C [LMB, Leptomycin B]
- time at which the inhibitory effect on HCV was lost (JFH-1 HCV [2]): 8 h post infection

Molecule: CC[C@H](C)[C@H](NC(=O)[C@H](CC(C)C)NC(=O)[C@H](CCCNC(=N)N)NC(=O)[C@H](C)NC(=O)[C@H](CC(C)C)NC(=O)[C@H](Cc1ccccc1)NC(=O)[C@H](CC(C)C)NC(=O)[C@H](CCCCN)NC(=O)[C@H](Cc1ccc(O)cc1)NC(=O)[C@H](Cc1c[nH]cn1)NC(=O)[C@@H]1CCCN1C(=O)[C@H](CO)NC(=O)[C@H](CC(C)C)NC(=O)[C@@H](NC(=O)[C@H](CC(C)C)NC(=O)[C@H](CC(C)C)NC(=O)[C@@H](NC(=O)[C@@H](N)CC(C)C)[C@@H](C)CC)[C@@H](C)O)C(=O)N[C@@H](Cc1c[nH]c2ccccc12)C(=O)N[C@@H](Cc1c[nH]c2ccccc12)C(=O)N[C@@H](CC(C)C)C(=O)N[C@@H](CCC(N)=O)C(=O)N[C@@H](Cc1ccc(O)cc1)C(=O)N[C@@H](Cc1ccccc1)C(=O)N[C@H](C(=O)N[C@H](C(=O)N[C@@H](CCCNC(=N)N)C(=O)N[C@@H](CCC(N)=O)C(=O)N[C@H](C(=O)N[C@@H](CCCCN)C(=O)N[C@H](C(=O)N[C@@H](Cc1c[nH]c2ccccc12)C(=O)N[C@@H](Cc1ccccc1)C(=O)N[C@@H](CCC(N)=O)C(=O)N[C@@H](CC(N)=O)C(=O)N[C@@H](CCCNC(=N)N)C(=O)N[C@@H](CCCNC(=N)N)C(=O)N[C@@H](CCSC)C(=O)N[C@@H](CCCCN)C(=O)N[C@@H](Cc1c[nH]c2ccccc12)C(=O)N[C@@H](CCCCN)C(=O)N[C@@H](CCCCN)C(=O)O)[C@@H](C)CC)[C@@H](C)CC)[C@@H](C)O)[C@@H](C)CC [NS2 NES]
- Kd (XPO1): 79.9 ± 25.6 nM

Molecule: PKTKRKVRQIKIWFQNRRMKWKK [SV40 mut NLS, reference compound]
- effect of peptide on HCV protein-IPO5 interaction (in words) [3]: do not interfere with IPOA5, IPO5 or XPO1 binding
- effect of peptide on HCV protein-XPO1 interaction (in words), ELISA [4]: do not interfere with IPOA5, IPO5 or XPO1 binding
- effect of peptide on HCV protein-IPOA5 interaction (in words) [5]: do not interfere with IPOA5, IPO5 or XPO1 binding
- Localization Cytoplasmic (HEK293T cells): +++
- Localization Nuclear (HEK293T cells): −
- binding to IPOA5 (in words) (IPOA5): does not bind IPOA5

Molecule: RQIKIWFQNRRMKWKK [Pen]
- effect on infection (in words) (JFH-1 HCV [1]; Pen peptide 100 µM, time of addition experiment): had no effect on infection
- effect of peptide on HCV protein-IPO5 interaction (in words) [3]: do not interfere with IPOA5, IPO5 or XPO1 binding
- effect of peptide on HCV protein-XPO1 interaction (in words), ELISA [4]: do not interfere with IPOA5, IPO5 or XPO1 binding
- effect of peptide on HCV protein-IPOA5 interaction (in words) [5]: do not interfere with IPOA5, IPO5 or XPO1 binding

From PMC4259358, “Functional Characterization of Nuclear Localization and Export Signals in Hepatitis C Virus Proteins and Their Role in the Membranous Web” (PLoS ONE, 2014)
